Test results reported in patent publication US6338843B1, “Biologically active materials” (priority 1997, dated 2002).

Columns and labels:
[1] = system: rat red blood cells; assay: Stability of rat red blood cells incubated in vitro (haemoglobin release, % lysis); format: cell-based; details: rat RBC 2% w/v suspension in PBS; relative to Triton X-100 = 100% lysis
Method: Dextrins of different molecular weight were incubated with isolated rat red blood cells (RBC) and haemoglobin release detected spectrophotometrically. Various dilutions of the test polymers (dextrins) and of the reference polymer polyethyleneimine were made up in PBS and mixed with an equal volume of fresh 2% w/v suspension of rat RBCs. This preparation was centrifuged at 1500×g for 10 min at room temperature. Then, 100 μl of the supernatant was removed and the levels of haemoglobin quantitated spectrophotometrically at […]. The results illustrated in FIG. 1 were expressed as % lysis relative to that of a Triton X-100 control (Sigma) which gave 100% RBC lysis.

[2] = system: L1210 cells; details: 72 h incubation, MTT
Method: L1210 cells were seeded at a density of 1×10^4 cells per well into 96 well ‘v’ bottomed microtiter plates (Costar) in RPMI 1640 tissue culture media (Gibeo) supplemented with 10% Foetal Calf Scrum (FCS) (Gibeo). All incubations were carried out at 37° C. in an atmosphere of 5% CO2.
The cells were then left for 24 h. Prior to being incubated with the polymers the cells were centrifuged at 1000×g for 10 minutes at room temperature. This served to pellet the cells and allow the removal of the media.
Doxorubicin and dextrin doxorubicin were then dissolved in RPMI 1640 containing 10% FCS and filter sterilised through 0.2μ filters (Aerodisk). Following this, the pellet was resuspended in media containing the appropriate concentration of drug or drug conjugate.
The tetrazolium dye MTT was used to assess cell viability. The cells were incubated for 67 h prior to the addition of the MTT. After a further incubation period of 5 h, the cells in suspension were subjected to centrifugation, the media removed and 100 μl of optical grade DMSO (Sigma) was added. The plates were read at 550 mn using a Titerteck plate reader. Results (OD) were expressed as a % of the OD seen in cell cultures containing no polymer.

Triton X-100
red cell lysis (haemoglobin release) [1]: caused haemoglobin release

COc1cccc2c1C(=O)c1c(O)c3c(c(O)c1C2=O)C[C@@](O)(C(=O)CO)C[C@@H]3O[C@H]1C[C@H](N)[C@H](O)[C@H](C)O1 [doxorubicin]
toxicity to L1210 cells in vitro [2]: toxic
